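Method: 48-hour compound exposure of cells in 96-well plates, five concentrations, linear interpolation of endpoints. GI50 is the concentration that inhibits growth by half.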 Activity calls are given as the source filed them. Cut-off read from the data, not from the text of the source: active = GI50 up to about 1.1 µM and inactive = higher.
Legend:
Test in all cases: DTP human tumour cell line panel, 48 h
[1] = system: A549
[2] = system: ACHN
[3] = system: BT-549
[4] = system: CCRF-CEM
[5] = system: COLO 205
[6] = system: DU-145
[7] = system: EKVX
[8] = system: HCT-15
[9] = system: HL-60
[10] = system: HOP-92
[11] = system: HT-29
[12] = system: IGROV-1
[13] = system: K562
[14] = system: KM12
[15] = system: MCF7
[16] = system: MDA-MB-231
[17] = system: MDA-MB-435
[18] = system: MDA-N
[19] = system: MOLT-4
[20] = system: Malme-3M
[21] = system: NCI-H23
[22] = system: NCI-H460
[23] = system: NCI-H522
[24] = system: NCI/ADR-RES
[25] = system: OVCAR-3
[26] = system: OVCAR-4
[27] = system: OVCAR-5
[28] = system: OVCAR-8
[29] = system: PC-3
[30] = system: RPMI-8226
[31] = system: RXF 393
[32] = system: SF-295
[33] = system: SF-539
[34] = system: SK-MEL-28
[35] = system: SK-OV-3
[36] = system: SN12C
[37] = system: SNB-19
[38] = system: SNB-75
[39] = system: SR
[40] = system: SW-620
[41] = system: TK-10
[42] = system: UACC-257
[43] = system: UACC-62
[44] = system: UO-31
[45] = system: 786-0
[46] = system: A498
[47] = system: CAKI-1
[48] = system: HCC 2998
[49] = system: HCT-116
[50] = system: HOP-62
[51] = system: Hs-578T
[52] = system: LOX IMVI
[53] = system: M14
[54] = system: NCI-H226
[55] = system: SF-268
[56] = system: SK-MEL-2
[57] = system: SK-MEL-5
[58] = system: T47D
[59] = system: U-251

## COc1cc(C(=O)Nc2cc(C(N)=O)cc(OC)c2OC)cc(NC(=O)/C=C/c2ccccc2)c1OC
[1]
  GI50: > 100 µM (inactive)
[2]
  GI50: > 100 µM (inactive)
[3]
  GI50: > 100 µM (inactive)
[4]
  GI50: 55.5 µM (inactive)
[5]
  GI50: > 100 µM (inactive)
[6]
  GI50: > 100 µM (inactive)
[7]
  GI50: > 100 µM (inactive)
[8]
  GI50: > 100 µM
[9]
  GI50: 96.4 µM (inactive)
[10]
  GI50: 5.11 µM (inactive)
[11]
  GI50: > 100 µM (inactive)
[12]
  GI50: > 100 µM (inactive)
[13]
  GI50: > 100 µM (inactive)
[14]
  GI50: > 100 µM (inactive)
[15]
  GI50: > 100 µM (inactive)
[16]
  GI50: 20 µM (inactive)
[17]
  GI50: > 100 µM (inactive)
[18]
  GI50: > 100 µM (inactive)
[19]
  GI50: 52.4 µM (inactive)
[20]
  GI50: 2.63 µM (inactive)
[21]
  GI50: > 100 µM (inactive)
[22]
  GI50: 66.4 µM (inactive)
[23]
  GI50: 3.43 µM (inactive)
[24]
  GI50: > 100 µM (inactive)
[25]
  GI50: 3.68 µM (inactive)
[26]
  GI50: > 100 µM (inactive)
[27]
  GI50: > 100 µM (inactive)
[28]
  GI50: > 100 µM (inactive)
[29]
  GI50: > 100 µM (inactive)
[30]
  GI50: 44 µM (inactive)
[31]
  GI50: > 100 µM (inactive)
[32]
  GI50: 2.67 µM (inactive)
[33]
  GI50: > 100 µM (inactive)
[34]
  GI50: > 100 µM (inactive)
[35]
  GI50: > 100 µM (inactive)
[36]
  GI50: 18.6 µM (inactive)
[37]
  GI50: > 100 µM (inactive)
[38]
  GI50: 1.71 µM (inactive)
[39]
  GI50: 20.4 µM (inactive)
[40]
  GI50: > 100 µM (inactive)
[41]
  GI50: > 100 µM (inactive)
[42]
  GI50: > 100 µM (inactive)
[43]
  GI50: 15.2 µM (inactive)
[44]
  GI50: > 100 µM (inactive)

## COC(=O)NNC(=O)OC.COC(=O)Nc1ccccc1NC(=O)OC.COC(=O)Oc1nn(C(=O)OC)c(=O)c2ccccc12
[45]
  GI50: > 100 µM (inactive)
[46]
  GI50: 39.1 µM (inactive)
[1]
  GI50: > 100 µM (inactive)
[2]
  GI50: > 100 µM (inactive)
[47]
  GI50: > 100 µM (inactive)
[4]
  GI50: > 100 µM (inactive)
[5]
  GI50: > 100 µM (inactive)
[6]
  GI50: > 100 µM (inactive)
[7]
  GI50: > 100 µM (inactive)
[48]
  GI50: > 100 µM (inactive)
[49]
  GI50: > 100 µM (inactive)
[8]
  GI50: > 100 µM
[9]
  GI50: > 100 µM (inactive)
[50]
  GI50: > 100 µM (inactive)
[11]
  GI50: > 100 µM (inactive)
[51]
  GI50: > 100 µM (inactive)
[12]
  GI50: > 100 µM (inactive)
[13]
  GI50: > 100 µM (inactive)
[14]
  GI50: > 100 µM (inactive)
[52]
  GI50: > 100 µM (inactive)
[53]
  GI50: > 100 µM (inactive)
[15]
  GI50: > 100 µM (inactive)
[16]
  GI50: > 100 µM (inactive)
[17]
  GI50: > 100 µM (inactive)
[18]
  GI50: > 100 µM (inactive)
[19]
  GI50: > 100 µM (inactive)
[20]
  GI50: > 100 µM (inactive)
[54]
  GI50: > 100 µM (inactive)
[21]
  GI50: > 100 µM (inactive)
[22]
  GI50: > 100 µM (inactive)
[23]
  GI50: > 100 µM (inactive)
[24]
  GI50: > 100 µM (inactive)
[25]
  GI50: > 100 µM (inactive)
[26]
  GI50: > 100 µM (inactive)
[27]
  GI50: > 100 µM (inactive)
[28]
  GI50: > 100 µM (inactive)
[29]
  GI50: > 100 µM (inactive)
[30]
  GI50: > 100 µM (inactive)
[31]
  GI50: > 100 µM (inactive)
[55]
  GI50: > 100 µM (inactive)
[32]
  GI50: > 100 µM (inactive)
[33]
  GI50: > 100 µM (inactive)
[34]
  GI50: > 100 µM (inactive)
[56]
  GI50: > 100 µM (inactive)
[57]
  GI50: > 100 µM (inactive)
[35]
  GI50: > 100 µM (inactive)
[36]
  GI50: > 100 µM (inactive)
[37]
  GI50: > 100 µM (inactive)
[38]
  GI50: > 100 µM (inactive)
[39]
  GI50: > 100 µM (inactive)
[40]
  GI50: > 100 µM (inactive)
[58]
  GI50: > 100 µM (inactive)
[41]
  GI50: > 100 µM (inactive)
[59]
  GI50: > 100 µM (inactive)
[42]
  GI50: > 100 µM (inactive)
[43]
  GI50: > 100 µM (inactive)
[44]
  GI50: > 100 µM (inactive)

## Cc1cn(C2C=CC(COP(=O)(OCc3ccc([N+](=O)[O-])o3)N(C)CCCCCl)O2)c(=O)[nH]c1=O (stereo unspecified)
[45]
  GI50: 10.9 µM (inactive)
[1]
  GI50: 10.9 µM (inactive)
[2]
  GI50: 15.3 µM (inactive)
[47]
  GI50: 16 µM (inactive)
[4]
  GI50: 5.43 µM (inactive)
[5]
  GI50: 2.4 µM (inactive)
[6]
  GI50: 13.3 µM (inactive)
[49]
  GI50: 8.65 µM (inactive)
[8]
  GI50: 16.6 µM
[9]
  GI50: 9.31 µM (inactive)
[50]
  GI50: 16 µM (inactive)
[10]
  GI50: 1.95 µM (inactive)
[11]
  GI50: 11.7 µM (inactive)
[51]
  GI50: 2.17 µM (inactive)
[12]
  GI50: 3.03 µM (inactive)
[13]
  GI50: 2.08 µM (inactive)
[14]
  GI50: 6.68 µM (inactive)
[52]
  GI50: 3.58 µM (inactive)
[53]
  GI50: 4.69 µM (inactive)
[15]
  GI50: 4.99 µM (inactive)
[16]
  GI50: 12.1 µM (inactive)
[17]
  GI50: 1.8 µM (inactive)
[18]
  GI50: 2.63 µM (inactive)
[19]
  GI50: 10.1 µM (inactive)
[20]
  GI50: 1.79 µM (inactive)
[54]
  GI50: 10.6 µM (inactive)
[21]
  GI50: 3.05 µM (inactive)
[22]
  GI50: 10 µM (inactive)
[23]
  GI50: 1.85 µM (inactive)
[24]
  GI50: 33.8 µM (inactive)
[25]
  GI50: 1.75 µM (inactive)
[26]
  GI50: 4.31 µM (inactive)
[27]
  GI50: 15.6 µM (inactive)
[28]
  GI50: 13.9 µM (inactive)
[29]
  GI50: 12.8 µM (inactive)
[30]
  GI50: 2.69 µM (inactive)
[31]
  GI50: 2.38 µM (inactive)
[55]
  GI50: 7.57 µM (inactive)
[32]
  GI50: 15.6 µM (inactive)
[33]
  GI50: 3.72 µM (inactive)
[34]
  GI50: 10.6 µM (inactive)
[56]
  GI50: 3.48 µM (inactive)
[57]
  GI50: 1.22 µM (inactive)
[35]
  GI50: 11.7 µM (inactive)
[36]
  GI50: 10.8 µM (inactive)
[37]
  GI50: 6.58 µM (inactive)
[38]
  GI50: 1.58 µM (inactive)
[39]
  GI50: 1.89 µM (inactive)
[40]
  GI50: 10.1 µM (inactive)
[58]
  GI50: 1.57 µM (inactive)
[41]
  GI50: 16.6 µM (inactive)
[59]
  GI50: 5.58 µM (inactive)
[42]
  GI50: 5.55 µM (inactive)
[43]
  GI50: 4.56 µM (inactive)
[44]
  GI50: 16.7 µM (inactive)
